Patent publication US20220280499A1, “NOVEL DRUG COMBINATIONS FOR TREATMENT OF A CARCINOMA” (Stichting Het Nederlands Kanker Instituue-Antoni van …, priority 2019, published 2022)

Experiments:
SNU449 xenograft = conditions: nude mice, lenvatinib 4 mg/kg, gefitinib 80 mg/kg, about 27 days
EGFR = experiment: western blot with phospho-protein-specific antibodies, EGFR activation; type: cell-based, human; conditions: three EGFR-high liver cancer cell lines
Protocol: (§1) FIG. 3. […] Activation of EGFR and ERK1/2 was analyzed. HSP90 served as a control.

SNU449 cells = experiment: EGFR shRNA knockdown with lenvatinib, proliferation; type: cell-based, human; conditions: SNU449 cells with EGFR shRNA vectors, about 10 days
Protocol: FIG. 1. […] Cell growth was assessed by a colony formation assay. […] Viability was assessed by CellTiter-Blue assays. (c) The level of EGFR knockdown was determined by western blot for three independent shRNAs. HSP90 protein level served as a loading control.
After this, genomic DNA was isolated from both treated and untreated cells, and the relative abundance of gRNA was determined by next generation sequencing of the bar code contained in each gRNA vector in three biological replicates as described (Evers et al., 2016. Nat Biotechnol 34: 631-3).

FGFR2 = FGFR2 (Homo sapiens, UniProt P21802); conditions: cited from earlier work
Chain of FGFR2 (P21802 22-821, species assumed): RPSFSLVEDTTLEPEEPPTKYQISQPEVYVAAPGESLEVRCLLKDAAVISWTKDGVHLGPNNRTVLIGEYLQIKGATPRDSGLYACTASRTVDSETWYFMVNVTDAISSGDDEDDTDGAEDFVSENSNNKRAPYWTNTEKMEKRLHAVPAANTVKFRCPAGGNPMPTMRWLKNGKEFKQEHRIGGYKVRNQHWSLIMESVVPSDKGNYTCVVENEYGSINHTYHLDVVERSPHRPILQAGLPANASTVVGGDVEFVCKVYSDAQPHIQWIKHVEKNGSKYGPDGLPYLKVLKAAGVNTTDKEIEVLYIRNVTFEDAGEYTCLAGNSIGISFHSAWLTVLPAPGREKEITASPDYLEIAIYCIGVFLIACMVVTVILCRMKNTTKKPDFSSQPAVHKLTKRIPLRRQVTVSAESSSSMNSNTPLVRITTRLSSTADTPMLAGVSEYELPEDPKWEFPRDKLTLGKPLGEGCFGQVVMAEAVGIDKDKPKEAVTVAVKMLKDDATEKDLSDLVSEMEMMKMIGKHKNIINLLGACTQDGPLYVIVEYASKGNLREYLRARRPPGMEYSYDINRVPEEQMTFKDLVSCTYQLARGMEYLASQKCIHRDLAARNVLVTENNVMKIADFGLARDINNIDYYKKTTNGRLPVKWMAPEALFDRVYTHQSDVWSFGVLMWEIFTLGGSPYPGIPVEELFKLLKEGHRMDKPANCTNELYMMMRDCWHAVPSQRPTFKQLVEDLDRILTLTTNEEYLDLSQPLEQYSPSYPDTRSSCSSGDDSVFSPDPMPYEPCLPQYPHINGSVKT

ERK1/2 = experiment: western blot with phospho-protein-specific antibodies, ERK1/2 activation; type: cell-based, human; conditions: three EGFR-high liver cancer cell lines
Protocol: as §1

advanced HCC = conditions: first-line treatment of advanced HCC; cited from earlier work
VEGFR family = conditions: cited from earlier work
advanced HCC patients = conditions: clinical trials; cited from earlier work

SMILES | tumor growth / antitumor effect (SNU449 xenograft) | Tyr 1068 phosphorylation of EGFR (activation of the receptor) (EGFR) | proliferation with suppression of EGFR (shRNA) in combination (SNU449 cells) | Ki (FGFR2) [nM] | phosphorylation (activation) of ERK1/2 (ERK1/2) | overall survival (advanced HCC) [months] | Ki (VEGFR family) [nM] | improvement of survival compared to placebo (advanced HCC patients)
COc1cc2ncnc(Nc3ccc(F)c(Cl)c3)c2cc1OCCCN1CCOCC1 [gefitinib, N-(3-chloro-4-fluorophenyl)-7-methoxy-6-(3-morpholin-4-ylpropoxy)quinazolin-4-amine] | little antitumor effect |  |  |  |  |  |  | 
COc1cc2nccc(Oc3ccc(NC(=O)NC4CC4)c(Cl)c3)c2cc1C(N)=O [lenvatinib, 4-[3-chloro-4-(cyclopropylcarbamoylamino)phenoxy]-7-methoxyquinoline-6-carboxamide] | little antitumor effect | strong increase | marked inhibition of proliferation | 8.21 | strong increase | 13.6 | 1 | 
CNC(=O)c1cc(Oc2ccc(NC(=O)Nc3ccc(Cl)c(C(F)(F)F)c3)cc2)ccn1 [sorafenib, 4-[4-[[4-chloro-3-(trifluoromethyl)phenyl]carbamoylamino]phenoxy]-N-methylpyridine-2-carboxamide] |  |  |  |  |  | 12.3 |  | less than 3 months
